US10294202B2, “Pyrrolidinones as herbicides” (FMC Corporation, priority 2013, dated 2019)

Key:
sedge, umbrella = assay: Test B flooded paddy test; format: in vivo, Cyperus difformis; details: 500 g ai/ha, Flood; scale of 0 to 100 where 0 is no effect and 100 is complete control
Outline: (§1)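 Treatment was made at the 2-leaf stage by dosing the standing floodwater, kept 3 cm above soil level for the whole test. Greenhouse exposure lasted 13 to 15 days. Response is a visual percent rating relative to controls, where a dash indicates no test result.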

galium = assay: Test A postemergence herbicide test; format: in vivo, Galium aparine; details: for Plant response rating, Galium: 125 g ai/ha; for Galium plant response rating (0 to 100 scale, 0 is no effect, 100 is complete control): 500 g ai/ha
Outline: (§2)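 Injury was rated visually about 10 days after treatment on a 0 (no effect) to 100 (complete control) scale, compared with untreated plants. Test chemicals were sprayed postemergence onto greenhouse plants 2–10 cm high at one to two leaves, grown in a loam–sand blend.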

rice = assay: Test B flooded paddy test; format: in vivo, Oryza sativa; details: 500 g ai/ha, Flood; scale of 0 to 100 where 0 is no effect and 100 is complete control
Outline: as §1

corn = assay: Test A pre-/postemergence herbicide test; format: in vivo, Zea mays; details: Postemergence
Outline: (§3)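 Scoring was visual, relative to untreated controls, on a 0–100 scale after about 10 greenhouse days. Preemergence treatment used a directed soil spray over seeded loam/sand; postemergence treatment targeted one- to two-leaf plants of 2–10 cm.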

kochia = assay: Test A pre-/postemergence herbicide test; format: in vivo, Kochia scoparia
Outline: as §3

giant foxtail = assay: Test A pre-/postemergence herbicide test; format: in vivo, Setaria faberii
Outline: as §3

barnyardgrass [1] = assay: Test A pre-/postemergence herbicide test; format: in vivo, Echinochloa crus-galli
Outline: as §3

barnyardgrass [2] = assay: Test B flooded paddy test; format: in vivo, Echinochloa crus-galli; details: 500 g ai/ha, Flood; scale of 0 to 100 where 0 is no effect and 100 is complete control
Outline: as §1

ducksalad = assay: Test B flooded paddy test; format: in vivo, Heteranthera limosa; details: 500 g ai/ha, Flood; scale of 0 to 100 where 0 is no effect and 100 is complete control
Outline: as §1

pigweed = assay: Test A pre-/postemergence herbicide test; format: in vivo, Amaranthus retroflexus
Outline: as §3

ragweed = assay: Test A pre-/postemergence herbicide test; format: in vivo, Ambrosia elatior
Outline: as §3

ryegrass, Italian = assay: Test A pre-/postemergence herbicide test; format: in vivo, Lolium multiflorum
Outline: as §3

wheat = assay: Test A pre-/postemergence herbicide test; format: in vivo, Triticum aestivum; details: Postemergence; for Plant response rating, Wheat: 125 g ai/ha; for Wheat plant response rating (0 to 100 scale, 0 is no effect, 100 is complete control): 500 g ai/ha
Outline: as §3

blackgrass = assay: Test A postemergence herbicide test; format: in vivo, Alopecurus myosuroides
Outline: as §2

[3] = visual rating on 0 to 100 scale (0 no effect, 100 complete control), approx. 10 days
[4] = 125 g ai/ha, visual rating on 0 to 100 scale (0 no effect, 100 complete control), approx. 10 days
[5] = 500 g ai/ha, 0 to 100 scale (0 no effect, 100 complete control)
[6] = Postemergence, 125 g ai/ha, visual rating on 0 to 100 scale (0 no effect, 100 complete control), approx. 10 days
[7] = Preemergence, 125 g ai/ha, 0 to 100 scale where 0 is no effect and 100 is complete control
[8] = Preemergence, 500 g ai/ha, visual rating on 0 to 100 scale (0 no effect, 100 complete control)
[9] = Postemergence, 500 g ai/ha, 0 to 100 scale (0 no effect, 100 complete control)
[10] = 0 to 100 scale, 0 is no effect, 100 is complete control
[11] = 125 g ai/ha, 0 to 100 scale, 0 is no effect, 100 is complete control
[12] = 125 g ai/ha, visual rating, 0 to 100 scale, 0 no effect, 100 complete control, approximately 10 days, preemergence
[13] = Postemergence, 125 g ai/ha, 0 to 100 scale, 0 is no effect, 100 is complete control
[14] = preemergence, 500 g ai/ha, 0 to 100 scale, 0 is no effect and 100 is complete control

## O=C1NCC(c2ccc(OC(F)F)cc2)C1C(=O)Nc1ccccc1C(F)(F)F (centres unmarked) [Compound 348]
sedge, umbrella
  Plant response rating, Sedge, Umbrella: 0
galium; [3]
  Plant response rating, Galium: 0
rice
  Plant response rating, Rice: 0
corn; [4]
  Plant response rating, Corn: 0
corn; [5]
  Plant response rating, Corn: 0
kochia; [6]
  Plant response rating, Kochia: 20
kochia; [7]
  Plant response rating, Kochia: 0
kochia; [8]
  Kochia plant response rating: 70
Giant foxtail; [6]
  Plant response rating, Foxtail, Giant: 70
Giant foxtail; [9]
  Plant response rating, Foxtail, Giant: 90
Giant foxtail; [7]
  Plant response rating, Foxtail, Giant: 90
Giant foxtail; [8]
  Foxtail, Giant plant response rating: 90
Barnyardgrass [1]; [6]
  Plant response rating, Barnyardgrass: 20
Barnyardgrass [1]; [9]
  Plant response rating, Barnyardgrass: 50
Barnyardgrass [1]; [7]
  Plant response rating, Barnyardgrass: 30
Barnyardgrass [1]; [8]
  Barnyardgrass plant response rating: 60
Barnyardgrass [2]
  Plant response rating, Barnyardgrass: 40
ducksalad
  Plant response rating, Ducksalad: 100
pigweed; [6]
  Plant response rating, Pigweed: 0
pigweed; [7]
  Plant response rating, Pigweed: 20
pigweed; [8]
  Pigweed plant response rating: 50
ragweed; [6]
  Plant response rating, Ragweed: 0
ragweed; [8]
  Ragweed plant response rating: 30
ryegrass, Italian; [6]
  Plant response rating, Ryegrass, Italian: 0
ryegrass, Italian; [7]
  Plant response rating, Ryegrass, Italian: 0
ryegrass, Italian; [8]
  Ryegrass, Italian plant response rating: 0
wheat; [3]
  Plant response rating, Wheat: 0
blackgrass; [4]
  Plant response rating, Blackgrass: 20
blackgrass; [5]
  Plant response rating, Blackgrass: 30

## O=C1NCC(c2ccc(Cl)cc2)C1C(=O)Nc1ccccc1Cl (centres unmarked) [Compound 220]
sedge, umbrella
  Plant response rating, Sedge, Umbrella: 0
galium; [10]
  Plant response rating, Galium: 0
galium
  Galium plant response rating (0 to 100 scale, 0 is no effect, 100 is complete control): 30
rice
  Plant response rating, Rice: 0
corn; [11]
  Plant response rating, Corn: 0
corn; 500 g ai/ha
  Corn plant response rating (0 to 100 scale, 0 is no effect, 100 is complete control): 20
kochia; [12]
  Plant response rating, Kochia: 0
kochia; [13]
  Plant response rating, Kochia: 0
kochia; Postemergence, 500 g ai/ha
  Kochia plant response rating (0 to 100 scale, 0 is no effect, 100 is complete control): 40
kochia; [14]
  Plant response rating, Kochia: 40
Giant foxtail; [12]
  Plant response rating, Foxtail, Giant: 80
Giant foxtail; [13]
  Plant response rating, Foxtail, Giant: 50
Giant foxtail; Postemergence, 500 g ai/ha
  Foxtail, Giant plant response rating (0 to 100 scale, 0 is no effect, 100 is complete control): 80
Giant foxtail; [14]
  Plant response rating, Foxtail, Giant: 90
Barnyardgrass [1]; [12]
  Plant response rating, Barnyardgrass: 30
Barnyardgrass [1]; [13]
  Plant response rating, Barnyardgrass: 40
Barnyardgrass [1]; Postemergence, 500 g ai/ha
  Barnyardgrass plant response rating (0 to 100 scale, 0 is no effect, 100 is complete control): 80
Barnyardgrass [1]; [14]
  Plant response rating, Barnyardgrass: 80
Barnyardgrass [2]
  Plant response rating, Barnyardgrass: 0
ducksalad
  Plant response rating, Ducksalad: 100
pigweed; [12]
  Plant response rating, Pigweed: 0
pigweed; [13]
  Plant response rating, Pigweed: 0
pigweed; Postemergence, 500 g ai/ha
  Pigweed plant response rating (0 to 100 scale, 0 is no effect, 100 is complete control): 0
pigweed; [14]
  Plant response rating, Pigweed: 20
ragweed; [12]
  Plant response rating, Ragweed: 0
ragweed; [13]
  Plant response rating, Ragweed: 0
ragweed; Postemergence, 500 g ai/ha
  Ragweed plant response rating (0 to 100 scale, 0 is no effect, 100 is complete control): 0
ragweed; [14]
  Plant response rating, Ragweed: 0
ryegrass, Italian; [12]
  Plant response rating, Ryegrass, Italian: 0
ryegrass, Italian; [13]
  Plant response rating, Ryegrass, Italian: 0
ryegrass, Italian; Postemergence, 500 g ai/ha
  Ryegrass, Italian plant response rating (0 to 100 scale, 0 is no effect, 100 is complete control): 20
ryegrass, Italian; [14]
  Plant response rating, Ryegrass, Italian: 30
wheat; [10]
  Plant response rating, Wheat: 0
wheat
  Wheat plant response rating (0 to 100 scale, 0 is no effect, 100 is complete control): 20
blackgrass; [11]
  Plant response rating, Blackgrass: 0
blackgrass; 500 g ai/ha
  Blackgrass plant response rating (0 to 100 scale, 0 is no effect, 100 is complete control): 40

## O=C1NCC(c2ccc(OC(F)F)cc2)C1C(=O)Nc1ccccc1Br (centres unmarked) [Compound 225]
sedge, umbrella
  Plant response rating, Sedge, Umbrella: 0
galium; [10]
  Plant response rating, Galium: 20
galium
  Galium plant response rating (0 to 100 scale, 0 is no effect, 100 is complete control): 30
rice
  Plant response rating, Rice: 0
corn; [11]
  Plant response rating, Corn: 0
corn; 500 g ai/ha
  Corn plant response rating (0 to 100 scale, 0 is no effect, 100 is complete control): 20
kochia; [12]
  Plant response rating, Kochia: 0
kochia; [13]
  Plant response rating, Kochia: 0
kochia; Postemergence, 500 g ai/ha
  Kochia plant response rating (0 to 100 scale, 0 is no effect, 100 is complete control): 0
kochia; [14]
  Plant response rating, Kochia: 30
Giant foxtail; [12]
  Plant response rating, Foxtail, Giant: 80
Giant foxtail; [13]
  Plant response rating, Foxtail, Giant: 40
Giant foxtail; Postemergence, 500 g ai/ha
  Foxtail, Giant plant response rating (0 to 100 scale, 0 is no effect, 100 is complete control): 70
Giant foxtail; [14]
  Plant response rating, Foxtail, Giant: 90
Barnyardgrass [1]; [12]
  Plant response rating, Barnyardgrass: 20
Barnyardgrass [1]; [13]
  Plant response rating, Barnyardgrass: 30
Barnyardgrass [1]; Postemergence, 500 g ai/ha
  Barnyardgrass plant response rating (0 to 100 scale, 0 is no effect, 100 is complete control): 60
Barnyardgrass [1]; [14]
  Plant response rating, Barnyardgrass: 30
Barnyardgrass [2]
  Plant response rating, Barnyardgrass: 0
ducksalad
  Plant response rating, Ducksalad: 90
pigweed; [12]
  Plant response rating, Pigweed: 0
pigweed; [13]
  Plant response rating, Pigweed: 0
pigweed; Postemergence, 500 g ai/ha
  Pigweed plant response rating (0 to 100 scale, 0 is no effect, 100 is complete control): 0
pigweed; [14]
  Plant response rating, Pigweed: 0
ragweed; [12]
  Plant response rating, Ragweed: 0
ragweed; [13]
  Plant response rating, Ragweed: 0
ragweed; Postemergence, 500 g ai/ha
  Ragweed plant response rating (0 to 100 scale, 0 is no effect, 100 is complete control): 0
ragweed; [14]
  Plant response rating, Ragweed: 0
ryegrass, Italian; [12]
  Plant response rating, Ryegrass, Italian: 0
ryegrass, Italian; [13]
  Plant response rating, Ryegrass, Italian: 0
ryegrass, Italian; Postemergence, 500 g ai/ha
  Ryegrass, Italian plant response rating (0 to 100 scale, 0 is no effect, 100 is complete control): 0
ryegrass, Italian; [14]
  Plant response rating, Ryegrass, Italian: 40
wheat; [10]
  Plant response rating, Wheat: 0
wheat
  Wheat plant response rating (0 to 100 scale, 0 is no effect, 100 is complete control): 20
blackgrass; [11]
  Plant response rating, Blackgrass: 0
blackgrass; 500 g ai/ha
  Blackgrass plant response rating (0 to 100 scale, 0 is no effect, 100 is complete control): 30
